Molecules are shown by their SMILES.

The conditions of data set [1]: measured by a laser granulometer. How it is done: Step 3: 0.2 g of donepezil semi pamoate seed crystals (the preparation method refers to example 4 of patent WO2013078608) were added into the filtrate obtained in step 1 to obtain a solution. Then the filtrate obtained in step 2 was slowly and dropwise added into the above solution at room temperature over 1 hour, slowly stirred for 5-10 hours with an anchor stir bar and filtered.
Step 1 and step 2 are the same as those of powder 1 #. Step 3: 0.2 g of donepezil semi pamoate seed crystals (the preparation method is the same as above) were added into the filtrate obtained in step 1 to obtain a solution. Then the filtrate obtained in step 2 was slowly and dropwise added into the above solution at 4-10° C. over 1 hour, stirred for 1-2 hours at room temperature and filtered.
Step 1 and step 2 are the same as those of powder 1 #. Step 3: 0.2 g of donepezil semi pamoate seed crystals (the preparation method refers to patent WO2013078608) were added into the filtrate obtained in step 1 to obtain a solution. Then the obtained solution was heated to 50-60° C. The filtrate obtained in step 2 was slowly and dropwise added into the above solution. After completion of the addition, the reaction solution was cooled to room temperature, stirred for 1-2 hours, and filtered.

The conditions of data set [2]: for Appearance observed: dry powder; for Angle of repose: funnel method, arctg (H/r); for fluidity: judged from angle of repose. How it is done: The angle of repose is a common index for evaluating the fluidity of dry powder. When measuring the angle of repose, the funnel is fixed at a suitable height H. The dry powder prepared in Example 1 was placed in a funnel and naturally leaked to form a pile until tip of the cone almost contacts the outlet of the funnel. Then, the radius r of the bottom surface of the cone was measured, and the angle of repose is arctg (H/r).

For data set [3] the following is noted: 160° C. for 2 hours. As to the method:
The powder 3 # prepared in Example 1 was placed at 160° C. for 2 hours, and the changes in appearance and weight loss thereof were recorded.

As to `COc1cc2c(cc1OC)C(=O)C(CC1CCN(Cc3ccccc3)CC1)C2.COc1cc2c(cc1OC)C(=O)C(CC1CCN(Cc3ccccc3)CC1)C2.O=C(O)c1cc2ccccc2c(Cc2c(O)c(C(=O)O)cc3ccccc23)c1O` [Powder 3#, donepezil semi pamoate], the average particle size D50 in data set [1] came to 13 ± 2 µm. In data set [2], the Appearance observed entry was “Homogeneous solid particles”, the Angle of repose is on record as 42 ± 1 ° and the fluidity entry is “certain fluidity”. In data set [3], the changes in appearance entry is “gradually changed from light yellow to bright brown, and finally coagulated and melted”; the weight loss entry was “about 5.14%”.

As for `COc1cc2c(cc1OC)C(=O)C(CC1CCN(Cc3ccccc3)CC1)C2.COc1cc2c(cc1OC)C(=O)C(CC1CCN(Cc3ccccc3)CC1)C2.O=C(O)c1cc2ccccc2c(Cc2c(O)c(C(=O)O)cc3ccccc23)c1O` [Powder 1#, donepezil semi pamoate], the average particle size D50 in data set [1] amounted to 90 ± 17 µm. In data set [2], the Appearance observed result is “Homogeneous solid particles”, the Angle of repose stood at 28 ± 4 ° and the fluidity entry is “certain fluidity”.

For `COc1cc2c(cc1OC)C(=O)C(CC1CCN(Cc3ccccc3)CC1)C2.COc1cc2c(cc1OC)C(=O)C(CC1CCN(Cc3ccccc3)CC1)C2.O=C(O)c1cc2ccccc2c(Cc2c(O)c(C(=O)O)cc3ccccc23)c1O` [Powder 4#, donepezil semi pamoate], the average particle size D50 in data set [1] came to 3 ± 1 µm. In data set [2], the Appearance observed entry is reported as “Homogeneous solid particles”, the Angle of repose is 38 ± 3 ° and the fluidity entry is “certain fluidity”.

With `COc1cc2c(cc1OC)C(=O)C(CC1CCN(Cc3ccccc3)CC1)C2.COc1cc2c(cc1OC)C(=O)C(CC1CCN(Cc3ccccc3)CC1)C2.O=C(O)c1cc2ccccc2c(Cc2c(O)c(C(=O)O)cc3ccccc23)c1O` [Powder 2#, donepezil semi pamoate], the average particle size D50 in data set [1] amounted to 42 ± 10 µm. In addition, in data set [2], the Appearance observed result is “Homogeneous solid particles”, the Angle of repose is listed as 35 ± 3 ° and the fluidity result is recorded as “certain fluidity”.

In data set [1], `COc1cc2c(cc1OC)C(=O)C(CC1CCN(Cc3ccccc3)CC1)C2.COc1cc2c(cc1OC)C(=O)C(CC1CCN(Cc3ccccc3)CC1)C2.O=C(O)c1cc2ccccc2c(Cc2c(O)c(C(=O)O)cc3ccccc23)c1O` [Powder 5#, donepezil semi pamoate] returned an average particle size D50 of 0.9 ± 0.4 µm. For the same molecule, in data set [2], the Appearance observed entry was “Obvious static electricity,”, the Angle of repose came out at 50 ± 4 ° and the fluidity entry is reported as “poor fluidity”.
